Source: the NIST ThermoML archive (doi:10.1021/je700535q)

Assay: xn = mol fraction of the nth substance listed
Conditions: 101 kPa, Liquid, x1 = 0

| Structure (SMILES) | binary diffusion coefficient (333.2 K) | binary diffusion coefficient (353.2 K) | binary diffusion coefficient (373.2 K) | binary diffusion coefficient (393.2 K) | binary diffusion coefficient (433.2 K) | binary diffusion coefficient (443.2 K) | binary diffusion coefficient (453.2 K) | binary diffusion coefficient (413.2 K) | binary diffusion coefficient (423.2 K) | binary diffusion coefficient (463.2 K) | binary diffusion coefficient (473.2 K) | binary diffusion coefficient (313.2 K) | binary diffusion coefficient (418.2 K) |
| --- | --- | --- | --- | --- | --- | --- | --- | --- | --- | --- | --- | --- | --- |
| c1ccc2cc3ccccc3cc2c1 [anthracene] + CCCCCCCCCCCCCC | 9.4e-10 m2/s | 1.36e-09 m2/s | 1.38e-09 m2/s | 2.03e-09 m2/s | 3.43e-09 m2/s | 4.57e-09 m2/s | 5.56e-09 m2/s |  |  |  |  |  |  |
| c1ccc2c(c1)sc1ccccc12 [dibenzothiophene] + CCCCCCCCCCCCCC | 1.06e-09 m2/s | 1.41e-09 m2/s |  | 2.13e-09 m2/s | 3.41e-09 m2/s |  | 3.96e-09 m2/s | 2.61e-09 m2/s | 3.14e-09 m2/s | 5.01e-09 m2/s |  |  |  |
| c1ccc2nc3ccccc3cc2c1 [acridine] + CCCCCCCCCCCCCC | 1.27e-09 m2/s | 1.55e-09 m2/s | 2e-09 m2/s | 2.4e-09 m2/s |  |  | 3.96e-09 m2/s | 2.93e-09 m2/s | 3.74e-09 m2/s |  | 5.08e-09 m2/s |  |  |
| c1ccc2sccc2c1 [benzo[b]thiophene] + CCCCCCCCCCCCCC | 1.19e-09 m2/s | 1.65e-09 m2/s | 2.1e-09 m2/s | 2.51e-09 m2/s |  |  | 4.77e-09 m2/s | 3.19e-09 m2/s | 3.83e-09 m2/s |  |  |  |  |
| c1ccc2ccccc2c1 [naphthalene] + CCCCCCCCCCCCCC | 1.42e-09 m2/s | 1.86e-09 m2/s | 2.28e-09 m2/s |  | 4.64e-09 m2/s |  | 5.56e-09 m2/s |  |  |  |  | 1.03e-09 m2/s | 3.69e-09 m2/s |
